From PMC9037311 (RSC Advances, 2021) come the findings set out here.

SMILES strings stand for the structures.

A short description of the data set: Pharmacokinetic study after oral administration to rats. The class given is in vivo, Sprague-Dawley male rats.

What is called Cmax is the peak of the concentration-time curve. For `O=C([O-])Cc1ccccc1Nc1c(Cl)cccc1Cl.[K+]` [DCFP, Diclofenac potassium], where the note is “25 mg kg^−1”, the “AUC(0–t)” value came out at 53.99 ± 3.18 mg/L/h, the “AUC(0–∞)” value was 59.22 ± 5.23 mg/L/h and the Cmax is 15520 ± 1050 ng/mL. Further, the blood drug concentration entry (at 10 h) was “nearly undetectable”. For the same molecule, the blood drug concentration result (within 1 h) was “not detectable”.
